Test results from patent US20130005568A1, “SAFENED HERBICIDAL MIXTURES” (E.I. DU PONT DE NEMOURS AND COMPANY, priority 2011, published 2013).

How the values were obtained:
[1] = system: Henbit; assay: Test G: turf grass and weed postemergence plant response rating; assay type: in vivo, Lamium amplexicaule L.; conditions: Henbit, postemergence, greenhouse, three weeks, 0-100 scale
Description: (§1) For all of the following biological tests, plant response ratings were based on a 0-100 scale where zero is growth equivalent to that of untreated plants (no plant response) and 100 represents no additional growth occurring after herbicide treatment.
(§2) Plants of the turf grass species: zoysia (Zoysia japonica Steud.), bermudagrass (Cynodon dactylon (L.) Pers.), tall fescue (Festuca arundinacea Shreib.), creeping bentgrass (Agrostis stoonoifera L.), perennial ryegrass (Lolium perenne L.) and hard fescue (Festuca species) were grown under greenhouse conditions for four months. Plants were clipped as needed to plant heights of 5-10 cm. Weeds typically found in turf: annual bluegrass (Poa annua L.), common chickweed (Stellaria media (L.) Vill.), large crabgrass (Digitaria sanguinales (L.) Scop.), dandelion (Taraxacum officinale Weber in Wiggers), goosegrass (Eleusine indica (L.) Gaertn.), henbit (Lamium amplexicaule L.), venice mallow (Hibiscus trionium L.) and purple nutsedge (Cyperus rotundus L.) were also grown under greenhouse conditions so that plants were 5-20 cm tall when they were treated. Herbicide mixtures were formulated, dissolved/dispersed in water containing 0.25% non-ionic surfactant, and sprayed postemergence to these turf grasses and weeds. Treated plants were grown under greenhouse conditions for three weeks before visual evaluations of plant responses were recorded.

[2] = system: Annual bluegrass; assay: as above; assay type: in vivo, Poa annua L.; conditions: Annual bluegrass, postemergence, greenhouse, three weeks, 0-100 scale
Description: as §1, §2

[3] = system: Bermudagrass; assay: as above; assay type: in vivo, Cynodon dactylon (L.) Pers.; conditions: Bermudagrass, postemergence, greenhouse, three weeks, 0-100 scale
Description: as §1
Plants of the turf grass species: zoysia (Zoysia japonica Steud.), bermudagrass (Cynodon dactylon (L.) Pers.), tall fescue (Festuca arundinacea Shreib.), creeping bentgrass (Agrostis stoonoifera L.), perennial ryegrass (Lolium perenne L.) and hard fescue (Festuca species) were grown under greenhouse conditions for four months. Plants were clipped as needed to plant heights of 5-10 cm. […] Herbicide mixtures were formulated, dissolved/dispersed in water containing 0.25% non-ionic surfactant, and sprayed postemergence to these turf grasses and weeds. Treated plants were grown under greenhouse conditions for three weeks before visual evaluations of plant responses were recorded.

[4] = system: Chickweed; assay: as above; assay type: in vivo, Stellaria media (L.) Vill.; conditions: Chickweed, postemergence, greenhouse, three weeks, 0-100 scale
Description: as §1, §2

[5] = system: Venice mallow; assay: as above; assay type: in vivo, Hibiscus trionium L.; conditions: Venice mallow, postemergence, greenhouse, three weeks, 0-100 scale
Description: as §1, §2

[6] = system: Goosegrass; assay: as above; assay type: in vivo, Eleusine indica (L.) Gaertn.; conditions: Goosegrass, postemergence, greenhouse, three weeks, 0-100 scale
Description: as §1, §2

[7] = system: Dandelion; assay: as above; assay type: in vivo, Taraxacum officinale Weber in Wiggers; conditions: Dandelion, postemergence, greenhouse, three weeks, 0-100 scale
Description: as §1, §2

[8] = system: Large crabgrass; assay: as above; assay type: in vivo, Digitaria sanguinales (L.) Scop.; conditions: Large crabgrass, postemergence, greenhouse, three weeks, 0-100 scale
Description: as §1, §2

[9] = system: Purple nutsedge; assay: as above; assay type: in vivo, Cyperus rotundus L.; conditions: Purple nutsedge, postemergence, greenhouse, three weeks, 0-100 scale
Description: as §1, §2

[10] = system: Pioneer 39K40 hybrid maize; assay: Test A: visual plant response rating, postemergence herbicide treatments alone and with Compound 1; assay type: in vivo, Zea mays L. spp. indentata Sturt.; conditions: in vivo
Experimental: as §1
Pioneer 39K40 hybrid maize used in this test (and also Tests B and C) is particularly sensitive to herbicides that inhibit the acetohydroxy acid synthase enzyme. Herbicide mixtures were dissolved/dispersed in a non-phytotoxic liquid carrier and were sprayed postemergence to Pioneer 39K40 hybrid maize (Zea mays L. spp. indentata Sturt.) in the third collar growth stage (extended leaf height was 50-60 cm). Treated plants were grown under greenhouse conditions for two weeks before visual evaluations of plant responses were recorded.

[11] = herbicide 200 g ai/ha + Compound 1 125 g ai/ha
[12] = herbicide 80 g ai/ha + Compound 1 125 g ai/ha

## Nc1nc(C2CC2)nc(C(=O)[O-])c1Cl.[K+] [Aminocyclopyrachlor-potassium, aminocyclopyrachlor]
[1]; [11]
  Observed Response, Herbicide mixture with Compound 1: 100
[1]; herbicide 200 g ai/ha
  Observed Response, Herbicide alone: 100
[2]; [11]
  Observed Response, Herbicide mixture with Compound 1: 0
[2]; herbicide 200 g ai/ha
  Observed Response, Herbicide alone: 20
[3]; [11]
  Observed Response, Herbicide mixture with Compound 1: 0
[3]; herbicide 200 g ai/ha
  Observed Response, Herbicide alone: 20
[4]; [11]
  Observed Response, Herbicide mixture with Compound 1: 100
[4]; herbicide 200 g ai/ha
  Observed Response, Herbicide alone: 100
[5]; [11]
  Observed Response, Herbicide mixture with Compound 1: 98
[5]; herbicide 200 g ai/ha
  Observed Response, Herbicide alone: 100
[6]; [11]
  Observed Response, Herbicide mixture with Compound 1: 0
[6]; herbicide 200 g ai/ha
  Observed Response, Herbicide alone: 50
[7]; [11]
  Observed Response, Herbicide mixture with Compound 1: 100
[7]; herbicide 200 g ai/ha
  Observed Response, Herbicide alone: 100
[8]; [11]
  Observed Response, Herbicide mixture with Compound 1: 70
[8]; herbicide 200 g ai/ha
  Observed Response, Herbicide alone: 80
[9]; [11]
  Observed Response, Herbicide mixture with Compound 1: 40
[9]; herbicide 200 g ai/ha
  Observed Response, Herbicide alone: 40

## COC(=O)c1ccccc1S(=O)(=O)NC(=O)Nc1nc(C)nc(OC)n1 [Metsulfuron-methyl, metsulfuron-methyl]
[1]; [12]
  Observed Response, Herbicide mixture with Compound 1: 100
[1]; herbicide 80 g ai/ha
  Observed Response, Herbicide alone: 100
[2]; [12]
  Observed Response, Herbicide mixture with Compound 1: 50
[2]; herbicide 80 g ai/ha
  Observed Response, Herbicide alone: 80
[4]; [12]
  Observed Response, Herbicide mixture with Compound 1: 100
[4]; herbicide 80 g ai/ha
  Observed Response, Herbicide alone: 100
[5]; [12]
  Observed Response, Herbicide mixture with Compound 1: 100
[5]; herbicide 80 g ai/ha
  Observed Response, Herbicide alone: 100
[6]; [12]
  Observed Response, Herbicide mixture with Compound 1: 0
[6]; herbicide 80 g ai/ha
  Observed Response, Herbicide alone: 50
[7]; [12]
  Observed Response, Herbicide mixture with Compound 1: 100
[7]; herbicide 80 g ai/ha
  Observed Response, Herbicide alone: 100
[10]
  Observed Response, Herbicide alone: 99
[8]; [12]
  Observed Response, Herbicide mixture with Compound 1: 0
[8]; herbicide 80 g ai/ha
  Observed Response, Herbicide alone: 60
[9]; [12]
  Observed Response, Herbicide mixture with Compound 1: 20
[9]; herbicide 80 g ai/ha
  Observed Response, Herbicide alone: 60
